# Measured values from US20070292387A1, “TRANSMUCOSAL DELIVERY OF PHARMACEUTICAL ACTIVE SUBSTANCES” (GWANGJU INSTITUTE OF SCIENCE AND TECHNOLOGY, priority 2006, published 2007).
# Read-outs that look alike come from different tables or passages of the source.
# Legend:
# [1] = tested on: Diabetes-induced rats; experiment: Bioavailability calculated from degree of blood glucose control (AUC) after oral administration; format: in vivo, rat; details: insulin 1.77 mg/kg, protease inhibitor not added
# Protocol: (§1) An insulin-chitosan conjugate (a conjugate using chitosan of MW 3000, 6000 or 9000 Da) was dissolved in a citrate buffer solution and then diluted with physiological saline to prepare an insulin-chitosan conjugate solution at an insulin concentration of 100 U/mL. Diabetes-induced rats were fasted for 6 hours, and blood was collected from the tail veins of animals and the blood glucose level was determined. The thus-obtained value was used as an initial value prior to administration of the drug. The experimental animals were given oral administration of the above-prepared insulin-chitosan conjugate solution at a dose of 50 IU/kg using a gastric sonde (50 IU is equivalent to 1.77 mg of insulin). As a control, animals were given oral administration of 50 IU/kg insulin and chitosan of MW 9000 Da in the same manner as above. On time points of 1, 2, 3, and 4 hours after administration of the drug, blood was collected from the tail veins of animals and the blood glucose level was determined. The blood glucose level at each time point was calculated by taking the initial value prior to administration of the drug to be 100%.
# Then, the bioavailability of conjugates were calculated from the degree of blood glucose control (area under curve, AUC) obtained in FIG. 2 after oral administration of each insulin-chitosan conjugate. […] In addition, as a control, known bioavailability of insulin, a protease-chitosan conjugate and a thiolated chitosan-insulin tablet preparation containing glutathione (a reducing agent) (Krauland A H, et al., J. Control Release, 24; 95(3):547-555 (2004)) was compared.
# [2] = tested on: Diabetes-induced rats; experiment: In vivo oral administration of insulin-chitosan conjugate (blood glucose level); parameters: species or system rat; details: FIG. 2
# Protocol: as §1
# [3] = oral, cited from earlier work
# [4] = tested on: B16F10 melanoma cells; experiment: Oral administration in B16F10 melanoma allograft (tumor size, survival); format: in vivo, C57BL6 male mice; details: oral 25 mg/kg, 5 days on, 2 days off, about 30 days; FIG. 7
# Protocol: B16F10 melanoma cells were subcutaneously transplanted at a cell density of 5×10^6 cells/mice into a dorsal region of C57BL6 male mice (mean body weight: 25 g). […] Experiments were carried out for mouse groups, each consisting of 5 to 6 animals having the tumor, simultaneously with observation of changes. Animals were given oral administration of the drug or physiological saline for about 30 days, starting on day 10 after tumor transplantation. […] The control group was administered physiological saline, paclitaxel and chitosan. In order to confirm the degree of tumor growth, the size of tumor was daily measured using a calibrator. The tumor size was calculated according to the following Equation (2): Tumor volume (mm^3)=(Length×Width^2)/2 (Equation 2).
# The survival rate of mice was also monitored simultaneously with measurement of the tumor size. When the tumor mass reached a size of more than 8000 mm^3, the animals were euthanized.
# [5] = Plasma paclitaxel after single oral dose with or without P-gp inhibitor cyclosporine A; format: in vivo, ICR mice
# Protocol: ICR mice (male, 25-30 g) were fasted for 12 hr before dosing. Mice were anesthetized with diethyl ether and administered with a single oral dose of paclitaxel or paclitaxel-chitosan conjugates with or without P-gp inhibitor (cyclosporine A, Sigma, 15 mg/kg) through an oral gavage that was carefully passed down the esophagus into the stomach. The drug solutions were prepared in 10% DMSO solution. The total volume of the administered drug solution was 0.2 ml. Blood (450 μl) was collected from a capillary in the retroorbital plexus and directly mixed with 50 Al of sodium citrate (3.8% solution); the sample was then immediately centrifuged at 3000 rpm at 4° C. for 20 min. The concentrations of paclitaxel in plasma were measured using HPLC after extraction.
compound,measurement,setting,value
Insulin-6K LMWC: insulin-6 KDa low molecular weight chitosan conjugate,Bioavailability (%) (IV injection: 100%),[1],0.77 ± 0.16%
same,Bioavailability (%) (SC injection: 100%),[1],2.66 ± 0.38%
Insulin-3K LMWC: insulin-chitosan conjugate using low molecular weight chitosan of MW 3000 Da,Bioavailability (%) (SC injection: 100%),[1],1.89 ± 0.32%
"insulin-chitosan conjugate: insulin (B29 lysine) bound via -CO-(CH2)2-S-S-(CH2)2-CO- linker to chitosan of MW 3000, 6000 or 9000",decrease in the blood glucose level compared to the initial blood glucose level,"[2]; 50 IU insulin/kg, 2 hours later",> 40%
Insulin-9K LMWC: insulin-chitosan conjugate using low molecular weight chitosan of MW 9000 Da,Bioavailability (%) (IV injection: 100%),[1],1.0 ± 0.13%
same,Bioavailability (%) (SC injection: 100%),[1],3.69 ± 0.29%
insulin,lowering of the blood glucose levels (in words),"[2]; insulin 50 IU/kg, chitosan of MW 9000 Da",no lowering of the blood glucose levels
CC(=O)O[C@H]1C(=O)[C@@]2(C)[C@H]([C@H](OC(=O)c3ccccc3)[C@]3(O)C[C@H](OC(=O)[C@H](O)[C@@H](NC(=O)c4ccccc4)c4ccccc4)C(C)=C1C3(C)C)[C@]1(OC(C)=O)CO[C@@H]1C[C@@H]2O [paclitaxel],bioavailability of paclitaxel,[3]; PTX only,4-10%
same,bioavailability of paclitaxel,[3]; combined with a P-gp inhibitor such as cyclosporin A or Valspodar,50-60%
same,tumor size compared to the control group,[4],no significant difference in the tumor size
same,increase of maximum plasma concentration (Cmax) when coadministrated with cyclosporine A,"[5]; cyclosporine A 15 mg/kg, FIG. 6a",9.3 fold
same,Cmax,"[5]; male, ICR, mouse, plasma, without cyclosporine A, conjugate chitosan MW 6000, read-out: maximum plasma concentration (Cmax) of paclitaxel",90 ± 20 ng/mL
